According to US9567302B2, “Carbamate compounds and of making and using same” (Abide Therapeutics, Inc., priority 2012, dated 2017):

Legend:
Assay type in all cases: biochemical
Set-up in all cases: from tissue; host or cells: mouse brain membrane fraction
Details in all cases: 30 min preincubation at 37° C.
FAAH = biological target: T1, FAAH (Mus musculus, UniProt O08914); assay: In vitro competitive activity-based protein profiling (FP-Rh), mouse FAAH
T1 sequence (O08914 1-579): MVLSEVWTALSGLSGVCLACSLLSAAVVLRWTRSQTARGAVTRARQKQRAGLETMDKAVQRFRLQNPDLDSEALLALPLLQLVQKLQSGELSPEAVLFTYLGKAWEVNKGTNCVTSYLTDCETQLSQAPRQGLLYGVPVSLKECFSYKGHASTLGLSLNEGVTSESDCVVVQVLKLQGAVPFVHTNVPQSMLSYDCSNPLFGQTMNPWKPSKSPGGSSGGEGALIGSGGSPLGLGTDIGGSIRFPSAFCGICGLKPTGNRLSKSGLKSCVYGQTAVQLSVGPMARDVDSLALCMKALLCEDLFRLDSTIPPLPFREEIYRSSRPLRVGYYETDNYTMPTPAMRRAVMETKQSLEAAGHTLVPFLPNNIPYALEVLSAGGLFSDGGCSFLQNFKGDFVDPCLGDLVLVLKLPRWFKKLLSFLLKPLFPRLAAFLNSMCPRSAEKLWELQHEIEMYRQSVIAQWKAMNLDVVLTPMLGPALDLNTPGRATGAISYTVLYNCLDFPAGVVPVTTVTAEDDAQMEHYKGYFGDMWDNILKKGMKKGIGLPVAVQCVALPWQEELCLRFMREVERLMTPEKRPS
Experimental: (§1) In Vitro Competitive Activity-Based Protein Profiling.
(§2) Proteomes (mouse brain membrane fraction or cell lysates) (50 μL, 1.0 mg/ml total protein concentration) were preincubated with varying concentrations of inhibitors at 37° C. After 30 min, FP-Rh (1.0 μL, 50 μM in DMSO) was added and the mixture was incubated for another 30 min at 37° C. Reactions were quenched with SDS loading buffer (50 μL—4×) and run on SDS-PAGE.

MAGL = biological target: T2, MAGL (Mus musculus, UniProt O35678); assay: In vitro competitive activity-based protein profiling (FP-Rh), mouse MAGL
T2 sequence (O35678 1-303): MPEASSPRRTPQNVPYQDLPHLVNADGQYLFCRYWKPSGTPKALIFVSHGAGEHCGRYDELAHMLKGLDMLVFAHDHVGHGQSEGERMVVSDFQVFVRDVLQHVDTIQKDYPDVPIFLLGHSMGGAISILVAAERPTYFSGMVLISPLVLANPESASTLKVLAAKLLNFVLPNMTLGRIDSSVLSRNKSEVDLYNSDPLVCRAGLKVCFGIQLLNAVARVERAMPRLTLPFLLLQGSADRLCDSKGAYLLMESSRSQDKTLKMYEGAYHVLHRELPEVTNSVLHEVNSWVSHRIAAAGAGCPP
Experimental: as §1, §2

ABHD6 = biological target: T3, ABHD6 (Mus musculus, UniProt Q8R2Y0); assay: In vitro competitive activity-based protein profiling (FP-Rh), mouse ABHD6
T3 sequence (Q8R2Y0 1-336): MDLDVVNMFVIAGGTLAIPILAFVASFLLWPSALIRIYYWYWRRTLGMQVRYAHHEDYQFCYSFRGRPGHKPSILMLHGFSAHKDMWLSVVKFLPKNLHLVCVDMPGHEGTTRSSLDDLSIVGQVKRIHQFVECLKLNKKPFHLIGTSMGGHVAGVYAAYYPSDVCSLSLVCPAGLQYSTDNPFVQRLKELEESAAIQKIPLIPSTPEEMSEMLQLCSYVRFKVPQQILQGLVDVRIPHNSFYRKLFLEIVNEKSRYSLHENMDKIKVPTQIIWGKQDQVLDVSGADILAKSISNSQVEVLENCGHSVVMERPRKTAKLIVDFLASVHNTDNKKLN
Experimental: as §1, §2

SMILES	IC50 (FAAH; Table 2, mouse proteome) [nM]	IC50 (MAGL; Table 2, mouse proteome) [nM]	IC50 (ABHD6; Table 2, mouse proteome) [nM]	IC50 (FAAH; Table 1, mouse proteome) [nM]	IC50 (MAGL; Table 1, mouse proteome) [nM]	IC50 (ABHD6; Table 1, mouse proteome) [nM]
O=C1COc2ccc(CN3CCN(C(=O)ON4C(=O)CCC4=O)CC3)cc2N1 [Example 134, 2,5-Dioxopyrrolidin-1-yl 4-((3-oxo-3,4-dihydro-2H-benzo[b][1,4]oxazin-6-yl)methyl)piperazine-1-carboxylate]	> 10000	1000 to 10000	1000 to 10000			
O=C(ON1C(=O)CCC1=O)N1CCN(Cc2cc(Cl)ccc2N2CCCC2)CC1 [Example 98, 2,5-Dioxopyrrolidin-1-yl 4-{[5-chloro-2-(pyrrolidin-1-yl)phenyl]methyl}piperazine-1-carboxylate]	> 10000	< 100	100 to 1000			
O=C(ON1C(=O)CCC1=O)N1CCN(Cc2ccc(Cl)cc2N2CCCCC2)CC1 [Example 129, 2,5-Dioxopyrrolidin-1-yl 4-(4-chloro-2-(piperidin-1-yl)benzyl)piperazine-1-carboxylate]	> 10000	< 100	100 to 1000			
Cn1nc(-c2ccccc2)cc1CN1CCN(C(=O)ON2C(=O)CCC2=O)CC1 [Example 139, 2,5-dioxopyrrolidin-1-yl 4-((1-methyl-3-phenyl-1H-pyrazol-5-yl)methyl)piperazine-1-carboxylate]	> 10000	100 to 1000	100 to 1000			
COC(=O)c1cc(CN2CCN(C(=O)ON3C(=O)CCC3=O)CC2)ccc1N1CCOCC1 [Example 118, 2,5-Dioxopyrrolidin-1-yl 4-(3-(methoxycarbonyl)-4-morpholinobenzyl)piperazine-1-carboxylate]	> 10000	1000 to 10000	1000 to 10000			
O=C(ON1C(=O)CCC1=O)N1CCN(Cc2ccc(Cl)cc2N2CCC3(CCOCC3)C2)CC1 [Example 109, 2,5-Dioxopyrrolidin-1-yl 4-[(4-chloro-2-{8-oxa-2-azaspiro[4.5]decan-2-yl}phenyl)methyl]piperazine-1-carboxylate]	> 10000	< 100	1000 to 10000			
O=C(NCCc1ccc(Oc2ccccc2)cc1)ON1C(=O)CCC1=O [Example 6, 2,5-Dioxopyrrolidin-1-yl N-[2-(4-phenoxyphenyl)ethyl]carbamate]				100 to 1000	> 10000	> 10000
O=C(NC1CCCc2ccccc21)ON1C(=O)CCC1=O (centres unmarked) [Example 20, 2,5-Dioxopyrrolidin-1-yl N-(1,2,3,4-tetrahydronaphthalen-1-yl)carbamate]				> 10000	> 10000	> 10000
O=C(ON1C(=O)CCC1=O)N1CC[C@H](OCc2ccccc2)C1 [Example 40, 2,5-Dioxopyrrolidin-1-yl (3S)-3-(benzyloxy)pyrrolidine-1-carboxylate]				> 10000	> 10000	
O=C(NCCc1ccc2ccccc2c1)ON1C(=O)CCC1=O [Example 27, 2,5-Dioxopyrrolidin-1-yl N-[2-(naphthalen-2-yl)ethyl]carbamate]					> 10000	> 10000
O=C(ON1C(=O)c2ccccc2C1=O)N1CCN(C(c2ccc(Cl)cc2)c2ccc(Cl)cc2)CC1 [Example 33, 1,3-Dioxo-2,3-dihydro-1H-isoindol-2-yl 4-[bis(4-chlorophenyl)methyl]piperazine-1-carboxylate]				> 10000	> 10000	100 to 1000
CN(C)C(=O)ON1C(=O)CNC1=O [Example 58, 2,5-Dioxoimidazolidin-1-yl dimethylcarbamate]				> 10000		
CN(Cc1cccc(-c2ccncc2)c1)C(=O)ON1C(=O)CCC1=O [Example 12, 2,5-Dioxopyrrolidin-1-yl N-methyl-N-{[3-(pyridin-4-yl)phenyl]methyl}carbamate]				> 10000	1000 to 10000	100 to 1000
O=C(ON1C(=O)CCC1=O)N1CCC(Cc2ccccc2)CC1 [Example 21, 2,5-Dioxopyrrolidin-1-yl 4-benzylpiperidine-1-carboxylate]				1000 to 10000	100 to 1000	100 to 1000
O=C(ON1C(=O)c2ccccc2C1=O)N1CCC(CCc2ccc(Cl)cc2)CC1 [Example 32, 1,3-Dioxo-2,3-dihydro-1H-isoindol-2-yl 4-[2-(4-chlorophenyl)ethyl]piperidine-1-carboxylate]				< 100	1000 to 10000	< 100
O=C(ON1C(=O)CCC1=O)N1CCN(C(c2cocn2)c2cocn2)CC1 [Example 152, 2,5-Dioxopyrrolidin-1-yl 4-(bis(oxazol-4-yl)methyl)piperazine-1-carboxylate]	1000 to 10000	1000 to 10000	1000 to 10000			
CN(C)C(=O)c1cc(-c2ccccc2)ccc1CN1CCN(C(=O)ON2C(=O)CCC2=O)CC1 [Example 189, 2,5-Dioxopyrrolidin-1-yl 4-{[2-(dimethylcarbamoyl)-4-phenylphenyl]methyl}piperazine-1-carboxylate]	> 10000	100 to 1000	1000 to 10000			
Cc1nn(-c2ccccc2)cc1CN1CCN(C(=O)ON2C(=O)CCC2=O)CC1 [Example 138, 2,5-Dioxopyrrolidin-1-yl 4-((3-methyl-1-phenyl-1H-pyrazol-4-yl)methyl)piperazine-1-carboxylate]	1000 to 10000	1000 to 10000	100 to 1000			
CC1CN(C(=O)ON2C(=O)CCC2=O)CCN1Cc1ccc(-c2ccccc2)cc1 (centres unmarked) [Example 160, 2,5-Dioxopyrrolidin-1-yl 3-methyl-4-[(4-phenylphenyl)methyl]piperazine-1-carboxylate]		100 to 1000				
O=C(ON1C(=O)CCC1=O)N1CCN(Cc2ccc(Br)cc2N2CCCC2)CC1 [Example 72, 2,5-Dioxopyrrolidin-1-yl 4-(4-bromo-2-(pyrrolidin-1-yl)benzyl)piperazine-1-carboxylate]		< 100				
O=C(ON1C(=O)CCC1=O)N1CCN(Cc2ccc(Cl)cc2)CC1 [Example 64, 2,5-Dioxopyrrolidin-1-yl 4-(4-chlorobenzyl)piperazine-1-carboxylate]		100 to 1000				
CC1CN(C(=O)ON2C(=O)CCC2=O)CCN1C(c1ccc(Cl)cc1)c1ccc(Cl)cc1 (centres unmarked) [Example 151, 2,5-Dioxopyrrolidin-1-yl 4-[bis(4-chlorophenyl)methyl]-3-methylpiperazine-1-carboxylate]		100 to 1000				
Cc1cc(N2CCOCC2)ccc1CN1CCN(C(=O)ON2C(=O)CCC2=O)CC1 [Example 63, 2,5-Dioxopyrrolidin-1-yl 4-(2-methyl-4-morpholinobenzyl)piperazine-1-carboxylate]		1000 to 10000				
O=C(ON1C(=O)CCC1=O)N1CC[C@@H](OCc2ccccc2)C1 [Example 39, 2,5-Dioxopyrrolidin-1-yl (3R)-3-(benzyloxy)pyrrolidine-1-carboxylate]				> 10000	> 10000	
O=C(ON1C(=O)CCC1=O)N1CCN(Cc2ccc(-c3ccccc3)cc2N2CCOCC2)CC1 [Example 161, 2,5-Dioxopyrrolidin-1-yl 4-((3-morpholino-[1,1′-biphenyl]-4-yl)methyl)piperazine-1-carboxylate]		100 to 1000				
O=C(ON1C(=O)CCC1=O)N1CCCCC1 [Example 17, 2,5-Dioxopyrrolidin-1-yl piperidine-1-carboxylate]				> 10000	> 10000	
O=C(ON1C(=O)CCC1=O)N1CCN(C(c2ccc(Cl)cc2)c2ccc(Cl)cc2)CC1 [Example 2, 2,5-Dioxopyrrolidin-1-yl 4-[bis(4-chlorophenyl)methyl]piperazine-1-carboxylate]				> 10000		100 to 1000
